Values quoted from earlier work, collected in US20070213390A1, “HMGCoA reductase inhibitor-angiotensin converting enzyme inhibitor compounds” (pSivida Inc., priority 2005, published 2007).

Target: T1, HMGR (HMGCoA reductase) (Homo sapiens, UniProt P04035)
T1 sequence (P04035 426-888 limits assumed): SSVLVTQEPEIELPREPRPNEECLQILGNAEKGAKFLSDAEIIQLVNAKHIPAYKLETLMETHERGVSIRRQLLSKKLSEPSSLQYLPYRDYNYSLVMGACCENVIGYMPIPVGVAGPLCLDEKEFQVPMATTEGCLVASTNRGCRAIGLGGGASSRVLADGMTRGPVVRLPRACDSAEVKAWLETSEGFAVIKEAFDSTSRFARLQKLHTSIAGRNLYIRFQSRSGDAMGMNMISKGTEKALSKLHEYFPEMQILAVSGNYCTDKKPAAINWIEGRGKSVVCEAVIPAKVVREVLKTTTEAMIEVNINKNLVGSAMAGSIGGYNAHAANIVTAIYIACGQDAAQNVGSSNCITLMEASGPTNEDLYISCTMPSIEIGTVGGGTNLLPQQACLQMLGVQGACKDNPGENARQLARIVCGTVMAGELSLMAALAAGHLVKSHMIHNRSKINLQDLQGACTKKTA
Settings: substrate of HMGR; read-out: Michaelis constant, Km, for HMG-CoA

SMILES: CC(O)(CC(=O)O)CC(=O)SCCNC(=O)CCNC(=O)[C@H](O)C(C)(C)COP(=O)(O)OP(=O)(O)OC[C@H]1O[C@@H](n2cnc3c(N)ncnc32)[C@H](O)[C@@H]1OP(=O)(O)O (stereo partly shown) [HMG-CoA, 3-hydroxy-3-methylglutaryl CoA]
- Km: 4 µM
